Reference: ChEMBL document CHEMBL1126817, “Synthesis, Biological Properties, and Structure-Activity Relationships of Quinoxaline Angiotensin II Receptor Antagonists” (Bioorg Med Chem Lett, 1993)

Assays:
[1] = target: T1, Angiotensin II receptor (Rattus norvegicus, UniProt P29089+P25095+P35351); test: Tested for binding affinity by measuring displacement of [125I]-Sar1 Ile8 angiotensin II from rat adrenal cortical membranes; format: cell membranes, Membrane
T1 sequence (P29089 whole entry): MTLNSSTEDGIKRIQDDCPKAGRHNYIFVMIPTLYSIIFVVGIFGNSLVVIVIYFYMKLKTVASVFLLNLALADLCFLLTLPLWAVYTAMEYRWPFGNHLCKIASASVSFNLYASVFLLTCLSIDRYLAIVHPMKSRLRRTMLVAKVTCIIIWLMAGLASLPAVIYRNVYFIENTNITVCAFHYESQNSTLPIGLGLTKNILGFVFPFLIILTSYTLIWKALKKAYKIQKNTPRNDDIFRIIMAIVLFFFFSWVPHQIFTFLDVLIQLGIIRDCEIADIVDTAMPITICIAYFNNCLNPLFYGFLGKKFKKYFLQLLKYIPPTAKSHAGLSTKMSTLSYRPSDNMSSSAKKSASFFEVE
T1 sequence (P25095 whole entry): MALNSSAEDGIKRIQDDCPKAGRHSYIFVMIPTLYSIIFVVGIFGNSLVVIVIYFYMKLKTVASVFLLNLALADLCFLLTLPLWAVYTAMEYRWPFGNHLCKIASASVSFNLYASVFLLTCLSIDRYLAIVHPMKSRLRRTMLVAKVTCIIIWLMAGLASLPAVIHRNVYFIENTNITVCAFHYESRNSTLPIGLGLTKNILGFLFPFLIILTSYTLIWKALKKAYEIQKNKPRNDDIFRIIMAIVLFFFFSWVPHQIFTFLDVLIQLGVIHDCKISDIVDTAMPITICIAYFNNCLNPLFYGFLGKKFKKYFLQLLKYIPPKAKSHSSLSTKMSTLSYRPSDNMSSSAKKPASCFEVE
T1 sequence (P35351 whole entry): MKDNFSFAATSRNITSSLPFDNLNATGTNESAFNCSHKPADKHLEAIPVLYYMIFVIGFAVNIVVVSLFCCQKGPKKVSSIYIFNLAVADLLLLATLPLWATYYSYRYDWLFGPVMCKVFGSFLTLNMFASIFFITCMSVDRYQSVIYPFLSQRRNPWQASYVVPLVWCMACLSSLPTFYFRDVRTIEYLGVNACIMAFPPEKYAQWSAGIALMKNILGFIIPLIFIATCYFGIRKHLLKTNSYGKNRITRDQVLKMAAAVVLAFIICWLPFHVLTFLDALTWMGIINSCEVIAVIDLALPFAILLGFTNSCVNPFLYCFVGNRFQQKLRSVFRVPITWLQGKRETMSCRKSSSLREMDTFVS

[2] = tested on: Rattus norvegicus; test: Tested for percent inhibition of compound against angiotensin II induced pressor response after 1 umol/kg intravenous administration in rats; inactive; format: functional
[3] = species on record: Rattus norvegicus; test: Tested for depression of contractions elicited by angiotensin II receptor in isolated rat aorta; format: functional
[4] = tested on: Rattus norvegicus; test: Compound was tested for inhibition of angiotensin II induced pressor response after intravenous administration in rats.; format: functional
[5] = tested on: Rattus norvegicus; test: Tested for percent inhibition of compound against angiotensin II induced pressor response after 3 umol/kg intravenous administration at 70 min in rats; format: functional

Ki [1] [nM]	SMILES	inhibition in vivo at 1 µmol/kg [2] [%]	Kb [3] [nM]	ED50 [4] [µmol/kg]	inhibition in vivo at 3 µmol/kg [5] [%]
6.9	CCCCc1nc2cccc(C(=O)O)c2nc1Cc1ccc(-c2ccccc2-c2nn[nH]n2)cc1	7	0.49	–	–
2.1	CCCCc1nc2ccccc2[n+]([O-])c1Cc1ccc(-c2ccccc2-c2nn[nH]n2)cc1	–	5.3	–	–
29	CCCCc1c(Cc2ccc(-c3ccccc3-c3nn[nH]n3)cc2)nc2ccccc2[n+]1[O-]	–	52	–	–
2.6	CCCCc1c(Cc2ccc(-c3ccccc3-c3nn[nH]n3)cc2)[n+]([O-])c2ccccc2[n+]1[O-]	–	2.1	1.8	0
7	CCCCc1nc2ccccc2nc1Cc1ccc(-c2ccccc2-c2nn[nH]n2)cc1	–	32	–	–
